What was measured:
Assay type in all cases: in vivo, C57BL/6J mice
[1] = tested on: high-fat diet-fed C57BL/6J mouse; assay: Blood glucose levels and biochemical parameters in HFD-fed mice; conditions: for blood glucose levels: fasting, week 12, oral gavage once daily 4 weeks; for blood glucose levels / blood adiponectin levels / circulating free fatty acid (FFA) levels / circulating total cholesterol (TC) levels / circulating triglycerides (TG) levels / levels of blood insulin / levels of blood leptin: AnK 10, 20, 40, Feno 250, Metf 300 mg/kg/day; for blood adiponectin levels / circulating free fatty acid (FFA) levels / circulating total cholesterol (TC) levels / circulating triglycerides (TG) levels / levels of blood insulin / levels of blood leptin: oral gavage once daily 4 weeks
Method: Animal studies were performed and approved under the guidelines of the Institutional Animal Care and Use Committee in Taiwan (12 Mar. 2015). […] After acclimatization for one week, all of the mice were randomly assigned into a control (CON) group and a high-fat diet (HFD) group. For the following 12 weeks, the CON group (n=9) received a control diet or a low-fat diet (Diet 12450B, Research Diets, Inc., New Brunswick, N.J., USA), while the HFD group (n=54) received a high-fat diet (Diet 12451, Research Diets, New Brunswick, N.J., USA). […] After HFD feeding for 8 weeks, the HFD group was randomly subdivided into six groups (n=9 per group) receiving different treatments and fed on HFD. […] The HF+AnK1, HF+AnK2, and HF+AnK3 groups are collectively termed AnK-treated HFD groups in the following examples. The CON mice were administered vehicle. All treatments were administered via oral gavage once daily. After administration for 4 weeks, all mice were fasted 12 hours, and blood was collected from the retro-orbital sinus under ether anesthesia. At the end of the experiment, the mice were sacrificed via carbon dioxide inhalation. Liver, adipose tissue, and skeletal muscle were collected and immediately stored at −80° C. for target gene analysis. A portion of the blood samples obtained from the retro-orbital sinus of fasted mice were immediately used to measure blood glucose levels using Sidekick glucose analyzer (YSI 1500, YSI Incorporated, Yellow Springs, USA) according to the glucose oxidase method. Heparin (30 units/mL, Sigma) was added into other portions of the blood samples. Plasma samples for the following analysis were prepared from these blood samples via centrifugation at 1600 g for 15 minutes at 4° C., followed by plasma separation within 30 minutes. Blood levels of triglycerides (TG), total cholesterol (TC), and free fatty acids (FFA) were determined using commercial assay kits in accordance with manufacturer's directions (Triglycerides-E test, Cholesterol-E test and FFA-C test, Wako Pure Chemical, Osaka, Japan). Blood levels of insulin, leptin, and adiponectin were measured by enzyme-linked immunosorbent assay (mouse insulin ELISA kit, Mercodia, Uppsala, Sweden; mouse leptin ELISA kit, Morinaga, Yokohama, Japan; mouse adiponectin ELISA kit, Crystal Chem International, Downers Grove, Ill., USA).

[2] = tested on: high-fat diet-fed C57BL/6J mouse; assay: Hepatic lipids in HFD-fed mice
Method: Animal studies were performed and approved under the guidelines of the Institutional Animal Care and Use Committee in Taiwan (12 Mar. 2015). […] After acclimatization for one week, all of the mice were randomly assigned into a control (CON) group and a high-fat diet (HFD) group. For the following 12 weeks, the CON group (n=9) received a control diet or a low-fat diet (Diet 12450B, Research Diets, Inc., New Brunswick, N.J., USA), while the HFD group (n=54) received a high-fat diet (Diet 12451, Research Diets, New Brunswick, N.J., USA). […] After HFD feeding for 8 weeks, the HFD group was randomly subdivided into six groups (n=9 per group) receiving different treatments and fed on HFD. […] The HF+AnK1, HF+AnK2, and HF+AnK3 groups are collectively termed AnK-treated HFD groups in the following examples. The CON mice were administered vehicle. All treatments were administered via oral gavage once daily. After administration for 4 weeks, all mice were fasted 12 hours, and blood was collected from the retro-orbital sinus under ether anesthesia. At the end of the experiment, the mice were sacrificed via carbon dioxide inhalation. Liver, adipose tissue, and skeletal muscle were collected and immediately stored at −80° C. for target gene analysis.

[3] = tested on: high-fat diet-fed C57BL/6J mouse; assay: Histopathology of epididymal white adipose tissue (adipocyte hypertrophy); conditions: mean area of epididymal adipocyte, HFD-fed mice
Method: (§1) Animal studies were performed and approved under the guidelines of the Institutional Animal Care and Use Committee in Taiwan (12 Mar. 2015). The 4-week old male C57BL/6J mice (total amount n=63) were obtained from the National Laboratory Animal Center (Taipei, Taiwan). After acclimatization for one week, all of the mice were randomly assigned into a control (CON) group and a high-fat diet (HFD) group. For the following 12 weeks, the CON group (n=9) received a control diet or a low-fat diet (Diet 12450B, Research Diets, Inc., New Brunswick, N.J., USA), while the HFD group (n=54) received a high-fat diet (Diet 12451, Research Diets, New Brunswick, N.J., USA). The low-fat diet was composed of protein 20%, carbohydrate 70% and fat 10%, whereas the high-fat diet was composed of protein 20%, carbohydrate 35%, and fat 45% (of total energy, % kcal). After HFD feeding for 8 weeks, the HFD group was randomly subdivided into six groups (n=9 per group) receiving different treatments and fed on HFD. […] The HF+AnK1, HF+AnK2, and HF+AnK3 groups are collectively termed AnK-treated HFD groups in the following examples. The CON mice were administered vehicle. All treatments were administered via oral gavage once daily. After administration for 4 weeks, all mice were fasted 12 hours, and blood was collected from the retro-orbital sinus under ether anesthesia. At the end of the experiment, the mice were sacrificed via carbon dioxide inhalation. Liver, adipose tissue, and skeletal muscle were collected and immediately stored at −80° C. for target gene analysis.
(§2) Parts of visceral adipose and liver specimens were fixed with formalin (200 g/kg) neutral buffered solution and embedded in paraffin. A series of 8 μm-thick sections was cut and stained with hematoxylin and eosin. For microscopic examination, a microscope (Olympus BX51, Olympus, Tokyo, Japan) was used and the images were photographed.
Adipocyte hypertrophy, the pathological enlargement of adipocytes, is often found in subjects with type 2 diabetes and hyperlipidemia. To verify the therapeutic effect of AnK on adipocyte hypertrophy, morphology of the epididymal white adipose tissue from mice of the HF group and the AnK-treated HFD groups was examined. Micrographs (magnification 200X) of the EWAT sections for each group were shown in FIG. 4 and analyzed to determine the mean area of an epididymal adipocyte.

[4] = tested on: high-fat diet-fed C57BL/6J mouse; assay: Histopathology of liver (hepatocellular ballooning); conditions: grade 0 absence, 1 few cells, 2 many cells (Table 4), HFD-fed mice
Method: as §1, §2
On the basis of previous study, the degree of hepatocellular ballooning is defined in TABLE 4: […]

[5] = HF + AnK1: AnK 10 mg/kg/day oral gavage 4 weeks
[6] = HF + AnK2: AnK 20 mg/kg/day oral gavage 4 weeks
[7] = HF + AnK3: AnK 40 mg/kg/day oral gavage 4 weeks
[8] = HF + Metf: metformin 300 mg/kg/day oral gavage 4 weeks

## C=C(CC[C@@H](C)[C@H]1CC[C@H]2C3=C(C(=O)C[C@]12C)[C@@]1(C)CC[C@@H](O)[C@](C)(O)[C@@H]1C[C@@H]3O)C(C)C(=O)O (stereo partly drawn) [AnK, 3α,4β,7β-trihydroxy-4α-methylergosta-8,24(28)-dien-11-on-25S-26-oic acid]
[1]; AnK 40 mg/kg body weight/day vs metformin 300 mg/kg/day
  glucose-lowering effect compared with metformin: comparable to that of metformin
[1]; AnK at 10, 20, and 40 mg/kg body weight/day, vs HF group
  lowering of blood glucose levels: 26.8-36.0%
[1]; AnK treatment (10, 20, 40 mg/kg/day), vs HF group
  decrease of circulating TG: 28.5-32.8%
[1]; AnK treatment vs fenofibrate 250 mg/kg/day
  TG-lowering effect compared with fenofibrate: comparable to the TG-lowering effect of fenofibrate
[1]; vs HF group
  blood glucose levels: significantly reduced
  blood adiponectin levels: markedly enhanced
  circulating free fatty acid (FFA) levels: decreased
  circulating total cholesterol (TC) levels: decreased
  circulating triglycerides (TG) levels: decreased
  levels of blood insulin: effectively reduced
  levels of blood leptin: effectively reduced
[2]; [5]
  Liver lipids total lipid: 73.1 ± 4.7 mg/g
  Liver lipids triacylglycerol: 56.3 ± 4.2 µmol/g
[2]; [6]
  Liver lipids total lipid: 66.0 ± 4.8 mg/g
  Liver lipids triacylglycerol: 45.7 ± 3.9 µmol/g
[2]; [7]
  Liver lipids total lipid: 64.5 ± 5.2 mg/g
  Liver lipids triacylglycerol: 45.2 ± 4.6 µmol/g
[3]; [5]
  Adipocyte size: 6548.6 ± 214.7 μm^2
[3]; [6]
  Adipocyte size: 6483.8 ± 319.8 μm^2
[3]; [7]
  Adipocyte size: 5670.8 ± 281.6 μm^2
[4]; [5]
  Hepatocellular ballooning Mean score: 0.7 ± 0.2
[4]; [6]
  Hepatocellular ballooning Mean score: 0.5 ± 0.2
[4]; [7]
  Hepatocellular ballooning Mean score: 0.4 ± 0.2

## CN(C)C(=N)N=C(N)N [Metf, metformin, reference compound]
[1]; vs HF group
  blood glucose levels: significantly reduced
  blood adiponectin levels: markedly enhanced
  circulating free fatty acid (FFA) levels: decreased
  circulating total cholesterol (TC) levels: decreased
  circulating triglycerides (TG) levels: decreased
  levels of blood insulin: effectively reduced
  levels of blood leptin: effectively reduced
[2]; [8]
  Liver lipids total lipid: 65.3 ± 4.9 mg/g
  Liver lipids triacylglycerol: 45.4 ± 4.2 µmol/g
[3]; [8]
  Adipocyte size: 5873.7 ± 345.1 μm^2
[4]; [8]
  Hepatocellular ballooning Mean score: 0.7 ± 0.2
